Measured values as given in patent US20100063020A1, “ORAL PHARMACEUTICAL FORMULATIONS AND METHODS FOR PRODUCING AND USING SAME” (priority 2004, published 2010).
Where “and” joins values, the source holds several entries; their conditions need not be identical. Equal entries are not always repeated. Where two headings read alike, the source gives them in different places.

How the values were obtained:
[1] = Mouse serum pharmacokinetics of low melt 17-AAG in phospholipids; assay type: in vivo; details: Balb/C mice; for 17-AG AUCobs / 17-AG Cmax: metabolite 17-AG
Method: Blood was collected at predetermined intervals and the serum was isolated.
(§1) Six to 8 week old Balb/C mice were obtained from Harlan Sprague Dawley (Indianapolis, Ind.). The mice were maintained in sterilized filter topped cages or ventilated caging in a room with a 12 h light/12 h dark photoperiod at temperature of 21-23° C. and a relative humidity of 50±5%. Irradiated pelleted food (Harlan Teklad #7912) and autoclaved deionized water were provided ad libitum. Experiments were carried out under institutional guidelines for the proper and humane use of animals in research established by the Institute for Laboratory Animal Research (ILAR).
Drug solutions were prepared and the concentrations were adjusted so that mice received a dose of 2-15 ml/kg administered intravenously (I.V.) as a bolus, orally, or intra-peritoneally (I.P.). […] In I.V. studies blood was sampled at 1, 5, 15, 30, 90 and 120 min. In oral and I.P. studies blood was sampled at 5, 15, 30, 90, 180 minutes and in some cases up to 240 minutes. Blood was collected in capillary tubes, transferred to microcentrifuge tubes, allowed to clot and centrifuged at 14,000 g for 10 minutes at 4° C. to obtain serum.

[2] = Effect of sodium lauryl sulfate on aqueous solubility of 17-AAG; assay type: physicochemical; details: pH 6.0, sodium lauryl sulfate
Description: Formulations of the invention may contain as much as 50% SLS.

[3] = Oral bioavailability of prototype 17-AAG solid dosage form (capsule) in female rats; assay type: in vivo, Sprague-Dawley rats; details: rat; for 17-AAG AUC(0-6)^b: oral capsule (17-AAG 33%, Neusilin 64%, SLS 3%), AUC estimated from 0 to 8 hrs; for 17-AAG Cmax / 17-AG Cmax / Apparent Absolute Bioavailability: oral capsule; for 17-AG Cmax: metabolite 17-AG; for Apparent Absolute Bioavailability: vs intravenous 10 mg/kg of earlier study
Method: See, Example 18. […] The average dose administered was 14.3 mg/kg.
(§2) The average dose administered was 14.3 mg/kg. Blood samples (n=11) were collected via the jugular vein catheter prior to dosing and up to 8 hrs post dosing. The blood was allowed to clot at room temperature for approximately 20 minutes and then placed on ice until centrifugation at 10,000×G for 10 minutes. Serum was collected into polypropylene tubes and frozen at −80° C. until analysis.
% F=[(Oral AUC(0-6h)×I.V. Dose)/(I.V. AUC(0-6h)×Oral Dose)]*100

[4] = Absolute oral bioavailability of 17-AAG lipid complex formulation in female rats; assay type: in vivo, Sprague-Dawley rats; details: rat; for Apparent Absolute Bioavailability: oral 50 mg/kg vs intravenous 10 mg/kg
Method: Female Sprague-Dawley rats were administered a phospholipid complex formulation of the low melt form of 17-AAG by oral gavage or as intravenous infusion (tail vein). Blood samples were collected prior to dosing and up to 6 hrs post dosing.
% F=[(Oral AUC(0-6h)×I.V. Dose)/(I.V. AUC(0-6h)×Oral Dose)]*100.
as §2, with “Blood” for “The average dose administered was 14.3 mg/kg. Blood”, “to 6” for “to 8”

[5] = adult patients, cited from earlier work; for Cmax: read-out: Plasma Cmax
[6] = Mouse serum pharmacokinetics of low melt 17-AAG in PEG-Tween; assay type: in vivo; details: Balb/C mice, PO 40 mg/kg
Method: as §1, with “Dawley,” for “Dawley”, “12-h light/12-h” for “12 h light/12 h”
Drug solutions were prepared and the concentrations were adjusted so that mice received a dose of 2-15 ml/kg administered intravenously (I.V.) as a bolus, orally, or intra-peritoneally (I.P.). In I.V. studies blood was sampled at 1, 5, 15, 30, 90 and 120 min. In oral and I.P. studies blood was sampled at 5, 15, 30, 90, 180 minutes and in some cases up to 240 minutes. Blood was collected in capillary tubes, transferred to microcentrifuge tubes, allowed to clot and centrifuged at 14,000 g for 10 minutes at 4° C. to obtain serum.

Caco-2 cell monolayer = assay: in vitro; assay type: in vitro ADME
Description: The permeability of the pharmaceutical active ingredient across the gastrointestinal membrane may be estimated from it permeability across a Caco-2 cell monolayer using standard techniques (e.g. Chong S et al. Pharmaceutical Research 1997 14(12):1835-1837). The reference is hereby expressly incorporated by reference.
Propranolol was included in each assay as a high permeability control compound.

[7] = PO 40 mg/kg, lipid complex, low melt form
[8] = 13.6-15.1 mg/kg, individual animal
[9] = intravenous 10 mg/kg, individual animal, 10 mg/kg
[10] = intravenous 10 mg/kg, metabolite 17-AG, individual animal, 10 mg/kg
[11] = intravenous 10 mg/kg, metabolite 17-AG, mean n=3
[12] = oral 50 mg/kg, individual animal, 50 mg/kg
[13] = oral 50 mg/kg, metabolite 17-AG, individual animal, 50 mg/kg

## C=CCNC1=C2C[C@@H](C)C[C@H](OC)[C@H](O)[C@@H](C)/C=C(\C)[C@H](OC(N)=O)[C@@H](OC)/C=C\C=C(/C)C(=O)NC(=CC1=O)C2=O [Compound 17-AAG, 17-allylamino-17-demethoxygeldanamycin]
[1]; IP 40 mg/kg, vehicle PMSE
  17-AAG AUCobs: 1596 µg·min/mL
  17-AAG Cmax: 11800 ng/mL
  17-AG AUCobs: 655 µg·min/mL
  17-AG Cmax: 5800 ng/mL
[1]; IP 40 mg/kg, vehicle PMSE, relative to IV 40 mg/kg
  % F: 91%
[1]; IP 40 mg/kg, vehicle PMSE, 17-AAG and 17-AG relative to IV dose
  Total Absorption: 96%
[1]; IV 40 mg/kg, vehicle PET
  17-AAG AUCobs: 1752 µg·min/mL
  17-AAG Cmax: 54500 ng/mL
  17-AG AUCobs: 595 µg·min/mL
  17-AG Cmax: 6200 ng/mL
[1]; [7]
  17-AAG AUCobs: 953 µg·min/mL
  17-AAG Cmax: 7500 ng/mL
[1]; PO 40 mg/kg, lipid complex
  17-AG AUCobs: 532 µg·min/mL
  17-AG Cmax: 4500 ng/mL
[2]
  aqueous solubility versus SLS concentration: increases linearly with increasing concentration of SLS
[3]; [8]
  17-AAG AUC(0-6)^b: 32 µg·min/mL and 19 µg·min/mL and 34 µg·min/mL
  17-AAG Cmax: 158 ng/mL and 117 ng/mL and 141 ng/mL
  17-AG Cmax: 70 ng/mL and 61 ng/mL and 52 ng/mL
  Apparent Absolute Bioavailability: 15% and 8% and 16%
[3]; mean dose 14.3 mg/kg, mean n=3
  17-AAG AUC(0-6)^b: 28 µg·min/mL
  17-AAG Cmax: 139 ± 21 ng/mL
  17-AG Cmax: 61 ± 9 ng/mL
  Apparent Absolute Bioavailability: 13±4%
[4]; [9]
  17-AAG AUC(0-6): 172 µg·min/mL and 161 µg·min/mL and 135 µg·min/mL
  17-AAG Cmax: 8700 ng/mL and 8000 ng/mL and 7000 ng/mL
[4]; intravenous 10 mg/kg, mean n=3
  17-AAG AUC(0-6): 156 µg·min/mL
  17-AAG Cmax: 7900 ng/mL
[4]; [10]
  17-AG AUC(0-6): 17 µg·min/mL and 25 µg·min/mL and 37 µg·min/mL
  17-AG Cmax: 300 ng/mL and 200 ng/mL
[4]; [11]
  17-AG AUC(0-6): 26 µg·min/mL
  17-AG Cmax: 200 ng/mL
[4]; individual animal
  Apparent Absolute Bioavailability: 160% and 129% and 39%
[4]; mean n=3
  Apparent Absolute Bioavailability: 109±63%
[4]; oral 50 mg/kg, 6 h
  17-AAG mean serum concentration six hours post oral dosing: 1.6 ± 0.8 µg/mL
[4]; oral 50 mg/kg, 6 h, metabolite 17-AG
  17-AG mean serum concentration six hours post oral dosing: 0.6 ± 0.1 µg/mL
[4]; [12]
  17-AAG AUC(0-6): 1248 µg·min/mL and 1003 µg·min/mL and 305 µg·min/mL
  17-AAG Cmax: 5700 ng/mL and 4700 ng/mL and 1200 ng/mL
[4]; oral 50 mg/kg, mean n=3
  17-AAG AUC(0-6): 852 µg·min/mL
  17-AAG Cmax: 3900 ± 2400 ng/mL
[4]; [13]
  17-AG AUC(0-6): 252 µg·min/mL and 238 µg·min/mL and 156 µg·min/mL
  17-AG Cmax: 1200 ng/mL and 900 ng/mL
[4]; oral 50 mg/kg, metabolite 17-AG, mean n=3
  17-AG AUC(0-6): 215 µg·min/mL
[4]; oral 50 mg/kg, metabolite 17-AG, mean n=3, 50 mg/kg
  17-AG Cmax: 1000 ng/mL
[5]; daily 1-hour infusion for 5 days every three weeks
  maximum tolerated dose (MTD): 40 mg/m^2
[5]; mean±SD
  clearance: 41.0 ± 13.5 L/h
  terminal half-life: 2.5 ± 0.5 h
[5]; 40 mg/m^2
  Cmax: 1860 ± 660 nM
[5]; 56 mg/m^2
  Cmax: 3170 ± 1310 nM
[6]; low melt form
  17-AAG AUCobs: 433 µg·min/mL
  17-AAG Cmax: 5000 ng/mL
[6]; metabolite 17-AG
  17-AG AUCobs: 163 µg·min/mL
  17-AG Cmax: 2400 ng/mL
[6]; relative to IV 40 mg/kg
  % F: 25%
Caco-2 cell monolayer
  permeability across the Caco-2 monolayer: 19 ×10⁻⁶ cm/s
